Data published in ChEMBL document CHEMBL1909046, “DrugMatrix in vitro pharmacology data”.

What was measured:
[1] = DRUGMATRIX: beta-Lactamase enzyme inhibition (substrate: Nitrocefin); set-up: species or system Bacillus cereus; conditions: Not Active = under 50% inhibition at 10 µM
Cathepsin G = target: T1, Cathepsin G (Homo sapiens, UniProt P08311); format: tissue-based; conditions: neutrophil;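 further: inhibition of Cathepsin G enzyme activity, tested on an AMC-conjugated peptide substrate; in other assays of this panel Not Active means under 50% inhibition at 10 µM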
T1 sequence (P08311 whole entry): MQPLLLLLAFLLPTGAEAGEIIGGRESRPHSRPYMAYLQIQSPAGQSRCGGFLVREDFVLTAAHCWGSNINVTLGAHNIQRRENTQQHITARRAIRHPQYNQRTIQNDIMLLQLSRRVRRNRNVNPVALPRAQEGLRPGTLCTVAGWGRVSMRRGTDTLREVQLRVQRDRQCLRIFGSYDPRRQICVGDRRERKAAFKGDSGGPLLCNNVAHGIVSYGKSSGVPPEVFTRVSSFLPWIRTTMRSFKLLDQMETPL

Cytochrome P450 2E1 = Cytochrome P450 2E1 (Homo sapiens, UniProt P05181); conditions: bti-tn-5b1-4; further: in other assays of this panel Not Active means under 50% inhibition at 10 µM
Chain of Cytochrome P450 2E1 (P05181 whole entry): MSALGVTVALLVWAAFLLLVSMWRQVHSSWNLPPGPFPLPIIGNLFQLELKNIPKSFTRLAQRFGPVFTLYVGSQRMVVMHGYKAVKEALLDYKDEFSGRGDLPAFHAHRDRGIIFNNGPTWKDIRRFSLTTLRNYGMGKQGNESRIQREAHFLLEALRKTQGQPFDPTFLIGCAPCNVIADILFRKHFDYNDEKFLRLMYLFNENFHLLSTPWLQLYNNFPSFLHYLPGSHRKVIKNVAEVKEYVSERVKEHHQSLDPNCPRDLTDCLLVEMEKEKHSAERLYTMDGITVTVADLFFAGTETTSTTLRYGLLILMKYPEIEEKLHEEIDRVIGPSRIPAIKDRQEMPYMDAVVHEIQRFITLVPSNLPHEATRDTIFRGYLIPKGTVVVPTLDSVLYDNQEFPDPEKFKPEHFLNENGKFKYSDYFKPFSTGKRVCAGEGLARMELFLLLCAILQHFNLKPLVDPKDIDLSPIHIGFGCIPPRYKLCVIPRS

[2] = DRUGMATRIX: Glutamate, Kainate radioligand binding (ligand: [3H] Kainic acid); format: cell membranes, Rattus norvegicus, Wistar, Brain, Membrane; conditions: Not Active = under 50% inhibition at 10 µM
[3] = DRUGMATRIX: Platelet-Derived Growth Factor (PDGF) radioligand binding (ligand: [125I] PDGF); format: cell-based; conditions: nih3t3; Not Active = under 50% inhibition at 10 µM
Insulin receptor = Insulin receptor (Rattus norvegicus, UniProt P15127); format: cell membranes, Wistar, Liver, Membrane; further: in other assays of this panel Not Active means under 50% inhibition at 10 µM
Chain of Insulin receptor (P15127 27-759 limits assumed): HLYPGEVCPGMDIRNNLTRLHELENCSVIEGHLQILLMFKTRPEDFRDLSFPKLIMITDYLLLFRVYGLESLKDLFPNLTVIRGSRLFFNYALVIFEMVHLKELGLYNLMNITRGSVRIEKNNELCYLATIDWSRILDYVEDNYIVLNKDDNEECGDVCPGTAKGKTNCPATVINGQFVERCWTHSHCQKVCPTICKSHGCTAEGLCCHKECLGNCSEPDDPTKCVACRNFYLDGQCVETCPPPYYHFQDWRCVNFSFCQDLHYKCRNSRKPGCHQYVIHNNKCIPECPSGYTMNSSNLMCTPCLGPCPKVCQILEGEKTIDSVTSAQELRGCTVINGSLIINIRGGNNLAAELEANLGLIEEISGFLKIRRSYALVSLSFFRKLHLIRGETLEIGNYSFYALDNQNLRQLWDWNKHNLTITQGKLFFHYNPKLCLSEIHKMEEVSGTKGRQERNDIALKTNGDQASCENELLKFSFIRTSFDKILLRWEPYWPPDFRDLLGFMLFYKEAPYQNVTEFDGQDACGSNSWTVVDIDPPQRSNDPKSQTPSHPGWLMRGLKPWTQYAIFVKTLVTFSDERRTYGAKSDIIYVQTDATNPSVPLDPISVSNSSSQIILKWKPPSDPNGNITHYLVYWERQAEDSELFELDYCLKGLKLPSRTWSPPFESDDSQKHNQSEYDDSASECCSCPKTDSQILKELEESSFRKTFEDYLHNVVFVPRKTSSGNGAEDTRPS
Chain of Insulin receptor (P15127 764-1383 limits assumed): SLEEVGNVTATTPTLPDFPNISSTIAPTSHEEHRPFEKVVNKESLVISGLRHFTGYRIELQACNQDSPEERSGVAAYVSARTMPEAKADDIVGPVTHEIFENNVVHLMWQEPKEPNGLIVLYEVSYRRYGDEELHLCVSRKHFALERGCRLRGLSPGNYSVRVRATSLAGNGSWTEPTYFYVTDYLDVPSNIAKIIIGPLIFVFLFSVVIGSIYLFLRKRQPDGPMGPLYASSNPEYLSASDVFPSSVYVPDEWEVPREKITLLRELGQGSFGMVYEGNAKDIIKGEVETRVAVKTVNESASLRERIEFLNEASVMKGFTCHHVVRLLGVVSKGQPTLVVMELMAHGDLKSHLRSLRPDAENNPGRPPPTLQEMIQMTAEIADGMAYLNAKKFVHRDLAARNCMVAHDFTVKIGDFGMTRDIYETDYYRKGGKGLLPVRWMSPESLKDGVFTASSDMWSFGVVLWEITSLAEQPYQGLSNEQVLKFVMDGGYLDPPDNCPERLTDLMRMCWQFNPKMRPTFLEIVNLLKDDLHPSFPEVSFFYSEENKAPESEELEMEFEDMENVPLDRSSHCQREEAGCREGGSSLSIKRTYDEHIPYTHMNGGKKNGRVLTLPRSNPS

Thromboxane-A synthase = target: T2, Thromboxane-A synthase (Homo sapiens, UniProt P24557); experiment: biochemical; format: tissue-based, Platelet; conditions: platelet;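 further: enzyme inhibition assay with PGH2 supplied as substrate; in other assays of this panel Not Active means under 50% inhibition at 10 µM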
T2 sequence (P24557 whole entry): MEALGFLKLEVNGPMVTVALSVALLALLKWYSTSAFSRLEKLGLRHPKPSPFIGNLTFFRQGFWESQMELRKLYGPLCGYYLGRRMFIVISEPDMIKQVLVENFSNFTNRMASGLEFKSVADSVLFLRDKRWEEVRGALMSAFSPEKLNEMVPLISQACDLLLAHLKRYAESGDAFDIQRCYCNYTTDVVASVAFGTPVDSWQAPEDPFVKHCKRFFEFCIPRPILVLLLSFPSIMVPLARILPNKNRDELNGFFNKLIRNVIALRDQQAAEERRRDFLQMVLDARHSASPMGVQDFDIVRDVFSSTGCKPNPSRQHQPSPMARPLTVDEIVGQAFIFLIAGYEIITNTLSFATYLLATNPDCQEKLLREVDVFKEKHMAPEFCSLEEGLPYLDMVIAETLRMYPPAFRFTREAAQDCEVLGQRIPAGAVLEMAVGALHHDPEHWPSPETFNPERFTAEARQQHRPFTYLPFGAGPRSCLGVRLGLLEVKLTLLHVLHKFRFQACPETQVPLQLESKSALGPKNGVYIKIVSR

[4] = target: Mitogen-activated protein kinase 14 (Homo sapiens, UniProt Q16539); set-up: species or system Escherichia coli
Chain of Mitogen-activated protein kinase 14 (Q16539 whole entry): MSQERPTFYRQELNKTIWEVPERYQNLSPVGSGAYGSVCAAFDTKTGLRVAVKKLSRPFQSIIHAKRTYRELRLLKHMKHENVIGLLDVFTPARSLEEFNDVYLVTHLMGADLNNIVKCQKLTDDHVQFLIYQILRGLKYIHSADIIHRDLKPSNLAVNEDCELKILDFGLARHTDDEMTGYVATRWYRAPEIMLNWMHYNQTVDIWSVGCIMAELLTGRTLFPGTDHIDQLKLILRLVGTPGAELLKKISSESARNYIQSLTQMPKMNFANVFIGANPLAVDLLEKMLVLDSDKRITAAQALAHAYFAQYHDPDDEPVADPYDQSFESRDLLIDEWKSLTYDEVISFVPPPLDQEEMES

D(1A) dopamine receptor = D(1A) dopamine receptor (Homo sapiens, UniProt P21728); experiment: DRUGMATRIX: Dopamine D1 radioligand binding (ligand: [3H] SCH-23390); format: cell membranes, Membrane; conditions: cho; Not Active = under 50% inhibition at 10 µM
Chain of D(1A) dopamine receptor (P21728 whole entry): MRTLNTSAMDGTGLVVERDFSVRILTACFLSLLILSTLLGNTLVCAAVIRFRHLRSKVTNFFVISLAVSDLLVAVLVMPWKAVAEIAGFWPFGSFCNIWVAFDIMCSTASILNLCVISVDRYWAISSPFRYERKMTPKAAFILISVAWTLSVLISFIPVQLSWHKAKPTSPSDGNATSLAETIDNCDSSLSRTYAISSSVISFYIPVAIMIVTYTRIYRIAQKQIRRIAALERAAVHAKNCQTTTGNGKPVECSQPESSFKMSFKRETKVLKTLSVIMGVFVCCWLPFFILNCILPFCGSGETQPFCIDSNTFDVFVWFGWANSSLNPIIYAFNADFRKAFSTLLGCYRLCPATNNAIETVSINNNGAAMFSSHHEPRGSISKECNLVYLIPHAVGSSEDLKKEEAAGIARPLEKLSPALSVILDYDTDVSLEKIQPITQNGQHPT

Compound	IC50 [1]	Ki [1]	IC50 (Cathepsin G)	IC50 (Cytochrome P450 2E1)	Ki (Cytochrome P450 2E1)	IC50 [2]	Ki [2]	IC50 [3]	Ki [3]	IC50 (Insulin receptor)	IC50 (Thromboxane-A synthase)	IC50 [4]	IC50 (D(1A) dopamine receptor)	IC50 ([4]; read-out: IC50) [µM]
Cc1cc(=O)n(-c2ccccc2)n1C [ANTIPYRINE]	Not Active	Not Active	Not Active	Not Active	Not Active	Not Active	Not Active	Not Active	Not Active	Not Active	Not Active	Not Active	Not Active	–
CC1(C)O[C@@H]2C[C@H]3[C@@H]4C[C@H](F)C5=CC(=O)CC[C@]5(C)[C@H]4[C@@H](O)C[C@]3(C)[C@]2(C(=O)CO)O1 [FLURANDRENOLIDE]	Not Active	Not Active	Not Active	Not Active	Not Active	Not Active	Not Active	Not Active	Not Active	Not Active	Not Active	Not Active	Not Active	–
CC(=O)OCC(=O)[C@@]1(O)CC[C@H]2[C@@H]3CCC4=CC(=O)CC[C@]4(C)[C@H]3C(=O)C[C@@]21C [CORTISONE ACETATE]	Not Active	Not Active	Not Active	Not Active	Not Active	Not Active	Not Active	Not Active	Not Active	Not Active	Not Active	Not Active	Not Active	–
CCN1CC(CCN2CCOCC2)C(c2ccccc2)(c2ccccc2)C1=O (centres undefined) [DOXAPRAM]	Not Active	Not Active	Not Active	Not Active	Not Active	Not Active	Not Active	Not Active	Not Active	Not Active	Not Active	Not Active	Not Active	–
NC(=O)c1cnccn1 [PYRAZINAMIDE]	Not Active	Not Active	Not Active	Not Active	Not Active	Not Active	Not Active	Not Active	Not Active	Not Active	Not Active	Not Active	Not Active	–
O=C1CC[C@H](N2C(=O)c3ccccc3C2=O)C(=O)N1	Not Active	Not Active	Not Active	Not Active	Not Active	Not Active	Not Active	Not Active	Not Active	Not Active	Not Active	Not Active	Not Active	–
ClC(Cl)Cl [CHLOROFORM]	Not Active	Not Active	Not Active	Not Active	Not Active	Not Active	Not Active	Not Active	Not Active	Not Active	Not Active	Not Active	Not Active	–
CCc1c2c(nc3ccc(OC(=O)N4CCC(N5CCCCC5)CC4)cc13)-c1cc3c(c(=O)n1C2)COC(=O)[C@]3(O)CC [IRINOTECAN]	Not Active	Not Active	Not Active	Not Active	Not Active	Not Active	Not Active	Not Active	Not Active	Not Active	Not Active	Not Active	Not Active	–
CCCN(CCC)C(=O)C(CCC(=O)O)NC(=O)c1ccccc1 (centres undefined) [PROGLUMIDE]	Not Active	Not Active	Not Active	Not Active	Not Active	Not Active	Not Active	Not Active	Not Active	Not Active	Not Active	Not Active	Not Active	–
CCCC(CCC)C(=O)O [VALPROIC ACID]	Not Active	Not Active	Not Active	Not Active	Not Active	Not Active	Not Active	Not Active	Not Active	Not Active	Not Active	Not Active	Not Active	–
Cc1ccccc1C(=O)N1CCC(Cc2ccccc2)CC1	Not Active	Not Active	Not Active	Not Active	Not Active	Not Active	Not Active	Not Active	Not Active	Not Active	Not Active	–	Not Active	0.329
CCCC(=O)Nc1ccc(OCC(O)CNC(C)C)c(C(C)=O)c1 (centres undefined) [ACEBUTOLOL]	Not Active	Not Active	Not Active	Not Active	Not Active	Not Active	Not Active	Not Active	Not Active	Not Active	Not Active	Not Active	Not Active	–
OC(CCN1CCCCC1)(c1ccccc1)C1CCCCC1 (centres undefined) [TRIHEXYPHENIDYL]	Not Active	Not Active	Not Active	Not Active	Not Active	Not Active	Not Active	Not Active	Not Active	Not Active	Not Active	Not Active	Not Active	–
Cc1ccc(S(=O)(=O)NC(=O)NN2CC3CCCC3C2)cc1 (centres undefined) [GLICLAZIDE]	Not Active	Not Active	Not Active	Not Active	Not Active	Not Active	Not Active	Not Active	Not Active	Not Active	Not Active	Not Active	Not Active	–
N=C(N)NC(=O)c1nc(Cl)c(N)nc1N [AMILORIDE]	Not Active	Not Active	Not Active	Not Active	Not Active	Not Active	Not Active	Not Active	Not Active	Not Active	Not Active	Not Active	Not Active	–
CC(C)(Oc1ccc(C2CCCc3ccccc32)cc1)C(=O)O (centres undefined) [NAFENOPIN]	Not Active	Not Active	Not Active	Not Active	Not Active	Not Active	Not Active	Not Active	Not Active	Not Active	Not Active	–	Not Active	3.74
Cc1cc2cc3c(C)cc(=O)oc3c(C)c2o1 [TRIOXSALEN]	Not Active	Not Active	Not Active	Not Active	Not Active	Not Active	Not Active	Not Active	Not Active	Not Active	Not Active	Not Active	Not Active	–
Oc1ccc(OCc2ccccc2)cc1 [MONOBENZONE]	Not Active	Not Active	Not Active	Not Active	Not Active	Not Active	Not Active	Not Active	Not Active	Not Active	Not Active	Not Active	Not Active	–
